We go through one compound from patent US12404332B2, “Methods for diagnosing and treating cancers” (Research Development Foundation, priority 2020, dated 2025).

Structures are written as SMILES.

Experiment [1] relates to PD-L1. Nature of the experiment: Tumor cell PD-L1 depletion by drugs (flow cytometry, immunoblot). The format is cell-based, human and mouse. The method, then: High throughput Screening: B16 PD-L1 RFP cells were treated with 2.5 and 10 μM compounds from the Prestwick and LOPAC Libraries for 48 hours using the Agilent Bravo liquid pipetting platform. Then, cells were washed with PBS, and fixed with 4% paraformaldehyde (Electron Microscopy Sciences, Hatsfield, PA, Cat 15714S) and labeled with 2 μg/ml DAPI, (Molecular Probes, Cat D1306) and 1 μg/ml Cell Mask-Blue (Invitrogen, Cat. H32720). Plates were then imaged using the Operetta High Content Imaging System, Perkin Elmer, Waltham (DAPI and Cell Mask Blue, Ex 360-400, Em 410-480), and the RFP channels (Ex 520-550, Em 560-630) channels. Agents effecting ≥2-fold PD-L1 reduction in the RFP reporter without loss of ≥20% cell viability were candidate PD-L1 depletion agents.
(§1) Flow cytometry: Mice were sacrificed by cervical dislocation after induction of deep isoflurane anesthesia. ID8agg tumors were collected and cells were stained as described (Derup et al., 2020) using LSR II hardware and analyzed by FACS Diva (BD Bioscience) or Flow Jo software (Flow Jo, LLC). Anti-mouse (clone 10F.9G2) and human (clone 29E.2A3) PD-L1 [both PE/Cy7, Cat #124314 (mouse) 329718 (human)] were matched with isotype control. Apoptosis assessment used Annexin V and propidium iodide (Thermo Scientific) per manufacturer instruction.
Western blotting and immunoprecipitation: To prepare whole cell lysates, cells were harvested and lysed in RIPA (radioimmunoprecipitation assay) buffer plus 1 mM phenylmethylsulphonyl fluoride and Halt protease/phosphatase inhibitor cocktail (Thermo Scientific) at 4° C. Protein concentrations were measured by BCA Protein Assay Kit (Thermo Scientific). Protein was run on precast 4-15% sodium dodecyl sulfate polyacrylamide gels (Bio-Rad), transferred to polyvinylidene fluoride membranes (GE Water and Process Technologies), and then blocked in 5% non-fat milk for 1 hour at room temperature. The membranes were then incubated with 1:1000 diluted primary antibodies against indicated proteins (Cell Signaling). Specific antibody binding was detected by chemiluminescence using Western Lightening Plus regent (Perkin Elmer). Cells for (co) immunoprecipitation experiments were seeded in 15-cm dishes and cultured as described, using 6 million cells per immunoprecipitation reaction. For protein ubiquitination, cells were lysed in denaturing buffer (50 mM Tris-HCl, 0.5 mM EDTA and 1% SDS) followed by heating at 95° C. for 10 minutes and then quenched with 9 volumes of quenching buffer (0.5% Triton X-100, 20 mM Tris-HCl (pH 8.0), 137 mM NaCl, 10% glycerol, 2 mM EDTA). Protease inhibitor cocktail (Roche) was added fresh to all buffers. Cell lysates were incubated on a rotator for 30 minutes at 4° C., and then centrifuged at 20,000 g for 15 minutes at 4° C. Supernatants were subsequently incubated with anti-PD-L1 antibody overnight and processed using Dynabeads Protein G for Immunoprecipitation (Thermo Fisher Scientific). The final eluate was processed and Western blotting was performed.

Experiment [2] relates to ID8agg and B16 cells. Briefly: Chlorambucil in vitro cell growth, viability, apoptosis and calreticulin. The class given is cell-based, mouse. As for the experimental part:
FIGS. 34A-D: FIG. 34A, Cells cultured in vitro with chlorambucil at indicated concentrations and counts determined on Vi-Cell. p-value, unpaired t-test. VC, vehicle control. FIG. 34B, Annexin V-FITC/PI (AV/PI) dual staining assay. Upper left, necrotic cells). Lower left, live cells. Lower right, early apoptotic cells and upper right, late apoptotic cells. ID8agg (CAMB 5 μM) and B16 (CAMB 10 μM) cells were treated for 48 hours. FIG. 34C, CAMB-treated ID8agg and B16 cells stained with an isotype control or an anti-calreticulin (CRT) antibody followed by immunofluorescence cytometry. FIG. 34D, Tumor cells were treated with the indicated concentrations with CAMB 48 h. Cell viability was detected by CCK-8 assay and relative cell viability ratio were compared between WT cells and PD-L1KO or PD-Lllo cells at different concentration point.
Cell proliferation and viability assays: Cells (0.5-1×10^3) were plated in 96-well plastic culture plates in 100 μL medium and treated with CAMB. Cell viability was determined by a cell counting kit-8 (CCK-8) (Sigma). Absorbance was measured at 450 nm using a BioTek Synergy 2 Multi-Mode Plate Reader. Proliferation was assessed in triplicate in three separate experiments for in vitro all data shown.
as §1

Experiment [3] relates to ES2 cells. Nature of the experiment: Tumor-initiating cell (TIC) flow cytometry, ES2 cells. The class given is cell-based, human. The method, then: (§2) FIGS. 40A-C: CAMB suppresses mTORC1 signals and reduces TIC numbers. FIG. 40A, Western blots for proteins in the mTORC1 pathway. Cells were treated with chlorambucil as indicated concentration for 48 hours. FIG. 40B, Western blot for LC3I/II to assess autophagy in cell lysates treated±chlorambucil at indicated concentrations. FIG. 40C, Percent of ALDH^hi TIC by flow cytometry of ES2 cells cultured±chlorambucil. Percent CD44^+CD24^+ ID8agg TIC and CD44^+CD133^+CD24^+ B16 TIC detected by flow cytometry.
as §1

The test system of experiment [4] is B16 cells. Nature of the experiment: Tumor-initiating cell (TIC) flow cytometry, B16 cells. The format is cell-based, mouse. As for the experimental part:
as §2, §1

Turning to `O=C(O)CCCc1ccc(N(CCCl)CCCl)cc1` [chlorambucil], the “effect on cell viability” value in experiment [1] (over 2-3 days, human and mouse tumor lines) is “little effect on cell viability”. Further, the “expression of PD-L1 in cancer cells” value in experiment [1] (summary statement) was “decreased expression of PD-L1”. In addition, in experiment [2], the “cell growth in vitro” value was “inhibited cell growth in vitro with little or no killing”, the cell surface calreticulin entry was “significantly increased”, the “immunogenic cell death (ICD)” value was “induced ICD independent of tumor PD-L1 status” and the “sensitivity of CTRL cells compared with PD-L1^lo or PD-L1^KO cells” value is reported as “more sensitive”. For the same compound, the apoptosis result in experiment [2] (ID8agg or B16 cells) is recorded as “did not induce apoptosis”. For the same compound, the “ALDH^hi TIC population” value in experiment [3] is “significantly reduced”. Besides, the “CD44^+CD24^+ TIC population” value in experiment [4] is on record as “significantly reduced”.
